Measurements taken from patent US10253002B2, “Compounds and methods of treating infections” (Neoculi Pty Ltd., priority 2013, dated 2019).
In brackets after ≈: the same amount, converted by molar mass. Read-outs that look alike come from different tables or passages of the source.

Tested on: S. pneumoniae isolates
Test: MBC, Example 5
Type: cell-based, Streptococcus pneumoniae
Procedure: [Micro-broth dilutions and 96 well trays are prepared by the following method: 90 μL of 4% LHB:CAMHB is aliquotted into all wells using a multichannel pipette. 90 μL of working antimicrobial stocks were no serial diluted down the tray by a 1:2 dilution. Negative broth controls and dilution control were taken into account when planning the set up of a 96 well tray.] 10 μL of bacterial suspension was then added to the appropriate wells in the 96 well tray. Appropriate positive (no antimicrobial), negative (no antimicrobial or bacteria) and negative dilution (a serial dilution control of antimicrobial and broth) controls were included in each assay. […] The MBC was determined by a 99.95% inhibition of S. pneumoniae, taking into account the dilution factor. MICs and MBCs were determined in quadruplicate and the mode was taken as the representative value. The MIC50, MIC90 and MIC range and MBC50, MBC90 and MBC range were determined according to CLSI standards. The MIC50 and MIC90, or MBC50 and MBC90, are defined by the lowest concentrations which, when all the MICs and MBCs of the isolates are arranged from lowest to highest, inhibited the 50th and 90th percentile of the total amount of isolates, respectively.

CC1(C)S[C@@H]2[C@H](NC(=O)[C@H](N)c3ccccc3)C(=O)N2[C@H]1C(=O)O [Ampicillin]
MBC (Streptococcus pneumoniae, isolate P21, Table 22, CAMHB diluent for NCL062, read-out: MBC): 0.045 µg/mL (≈ 0.129 µM) | MBC (Streptococcus pneumoniae, isolate WCH57, Table 22, CAMHB diluent for NCL062, read-out: MBC): 0.09 µg/mL (≈ 0.258 µM) | MBC (Streptococcus pneumoniae, isolate WCH158, Table 22, CAMHB diluent for NCL062, read-out: MBC): 0.022 µg/mL (≈ 0.063 µM) | MBC (Streptococcus pneumoniae, pneumococcal isolate A66.1, read-out: MBC): 0.045 µg/mL (≈ 0.129 µM) | MBC (Streptococcus pneumoniae, pneumococcal isolate D39, read-out: MBC): 0.023 µg/mL (≈ 0.0658 µM) | MBC (Streptococcus pneumoniae, pneumococcal isolate EF3030, read-out: MBC): 0.023 µg/mL (≈ 0.0658 µM) | MBC (Streptococcus pneumoniae, pneumococcal isolate L82016, read-out: MBC): 0.023 µg/mL (≈ 0.0658 µM) | MBC (Streptococcus pneumoniae, pneumococcal isolate P9, read-out: MBC): 0.023 µg/mL (≈ 0.0658 µM) | MBC (Streptococcus pneumoniae, pneumococcal isolate P21, read-out: MBC): 0.023 µg/mL (≈ 0.0658 µM) | MBC (Streptococcus pneumoniae, pneumococcal isolate TIGR4, read-out: MBC): 0.023 µg/mL (≈ 0.0658 µM) | MBC (Streptococcus pneumoniae, pneumococcal isolate WCH43, read-out: MBC): 0.023 µg/mL (≈ 0.0658 µM) | MBC (Streptococcus pneumoniae, pneumococcal isolate WCH46, read-out: MBC): 0.045 µg/mL (≈ 0.129 µM) | MBC (Streptococcus pneumoniae, pneumococcal isolate WCH57, read-out: MBC): 0.023 µg/mL (≈ 0.0658 µM) | MBC (Streptococcus pneumoniae, pneumococcal isolate WCH77, read-out: MBC): 0.023 µg/mL (≈ 0.0658 µM) | MBC (Streptococcus pneumoniae, pneumococcal isolate WCH86, read-out: MBC): 0.023 µg/mL (≈ 0.0658 µM) | MBC (Streptococcus pneumoniae, pneumococcal isolate WCH89, read-out: MBC): 0.023 µg/mL (≈ 0.0658 µM) | MBC (Streptococcus pneumoniae, pneumococcal isolate WCH92, read-out: MBC): 0.09 µg/mL (≈ 0.258 µM) | MBC (Streptococcus pneumoniae, pneumococcal isolate WCH137, read-out: MBC): 0.023 µg/mL (≈ 0.0658 µM) | MBC (Streptococcus pneumoniae, pneumococcal isolate WCH158, read-out: MBC): 0.023 µg/mL (≈ 0.0658 µM) | MBC (Streptococcus pneumoniae, pneumococcal isolate WCH184, read-out: MBC): 0.045 µg/mL (≈ 0.129 µM) | MBC (Streptococcus pneumoniae, pneumococcal isolate WCH211, read-out: MBC): 0.023 µg/mL (≈ 0.0658 µM) | MBC (Streptococcus pneumoniae, pneumococcal isolate WU2, read-out: MBC): 0.023 µg/mL (≈ 0.0658 µM) | MBC (Streptococcus pneumoniae, all S. pneumoniae isolates, read-out: MBC50): 0.023 µg/mL (≈ 0.0658 µM) | MBC (Streptococcus pneumoniae, all S. pneumoniae isolates, read-out: MBC90): 0.023 µg/mL (≈ 0.0658 µM) | MBC Range (all S. pneumoniae isolates): 0.011 to 0.09 µg/mL | MBC (pneumococcal isolate WCH16): Autolysis
